Where “and” joins values, the source holds several entries; their conditions need not be identical. Equal entries are not always repeated.

Assay [1] concerns the target T1, ATB^0 (Homo sapiens, UniProt Q15758).
T1 sequence (Q15758 1-541): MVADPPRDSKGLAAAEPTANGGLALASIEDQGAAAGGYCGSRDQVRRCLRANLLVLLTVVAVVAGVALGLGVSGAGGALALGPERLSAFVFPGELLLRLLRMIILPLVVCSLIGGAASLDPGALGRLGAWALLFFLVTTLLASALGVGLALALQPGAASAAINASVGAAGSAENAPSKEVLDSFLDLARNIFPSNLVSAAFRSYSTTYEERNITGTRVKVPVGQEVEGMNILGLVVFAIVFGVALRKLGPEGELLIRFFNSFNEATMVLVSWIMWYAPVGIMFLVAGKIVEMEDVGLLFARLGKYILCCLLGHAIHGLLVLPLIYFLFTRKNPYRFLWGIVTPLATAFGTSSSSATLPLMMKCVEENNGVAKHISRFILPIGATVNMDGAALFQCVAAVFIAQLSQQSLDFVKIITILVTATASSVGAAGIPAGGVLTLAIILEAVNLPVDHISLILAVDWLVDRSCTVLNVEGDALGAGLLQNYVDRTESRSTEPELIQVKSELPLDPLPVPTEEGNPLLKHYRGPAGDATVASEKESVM
The assay can be described thus: cell-based.

In assay [2] the target is T2, mouse ATB^0,+ (Mus musculus, UniProt Q9JMA9).
T2 sequence (Q9JMA9 1-638): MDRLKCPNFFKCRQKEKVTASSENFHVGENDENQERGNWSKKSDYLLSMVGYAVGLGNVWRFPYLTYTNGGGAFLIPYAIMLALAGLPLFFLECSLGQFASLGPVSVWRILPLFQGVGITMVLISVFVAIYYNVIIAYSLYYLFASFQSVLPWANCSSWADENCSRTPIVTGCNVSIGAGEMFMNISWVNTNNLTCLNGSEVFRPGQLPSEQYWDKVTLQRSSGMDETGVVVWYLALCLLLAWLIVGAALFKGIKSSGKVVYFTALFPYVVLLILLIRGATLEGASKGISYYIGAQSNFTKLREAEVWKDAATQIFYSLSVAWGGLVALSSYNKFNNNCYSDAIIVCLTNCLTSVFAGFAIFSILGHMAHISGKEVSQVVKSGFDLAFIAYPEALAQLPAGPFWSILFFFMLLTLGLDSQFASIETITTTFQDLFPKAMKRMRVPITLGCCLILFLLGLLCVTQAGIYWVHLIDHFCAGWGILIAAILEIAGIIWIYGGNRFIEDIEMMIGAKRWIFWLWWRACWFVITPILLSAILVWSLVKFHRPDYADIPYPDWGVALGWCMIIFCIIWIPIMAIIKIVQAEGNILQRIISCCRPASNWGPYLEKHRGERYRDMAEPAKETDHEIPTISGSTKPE
Conditions: for Current in X. laevis oocytes (nA), L-isomer: L-amino acid 1 mM; for Current in X. laevis oocytes (nA), L-isomer / Current in X. laevis oocytes (nA), D-isomer: NaCl pH 7.5; for Current in X. laevis oocytes / inward current in the absence of Cl− (sodium gluconate) / inward current in the absence of Na+ (NMDG chloride): compound 1 mM; for Current in X. laevis oocytes: NaCl medium pH 7.5, voltage clamp; for Current in X. laevis oocytes (nA), D-isomer: D-amino acid 1 mM; for K0.5 (concentration inducing half-maximal current; Michaelis-Menten constant): oocytes, membrane potential −50 mV.

Assay [3] concerns the target T2, mouse ATB^0,+. The note with it: for effect on ATB^0,+-mediated glycine transport (in words): glycine 10 μM, HRPE cells.
Assay [4] addresses T2, mouse ATB^0,+. The assay can be described thus: Inhibition of ATB0,+-specific [3H]-L-NNA transport by amino acids in HRPE cells. The assay is classed as cell-based. Conditions: amino acids 5 mM; [3H]-L-NNA 10 μM.
Assay [5] addresses T2, mouse ATB^0,+.
Assay [6] concerns the target T2, mouse ATB^0,+. The assay can be described thus: Transport of radiolabeled substrates in HRPE cells expressing cloned mouse ATB0,+. Type of assay: cell-based. The note with it: HRPE cells.

As usually defined, the Ki is the equilibrium dissociation constant of an inhibitor or competing ligand from its target. Low values mean higher affinity, high ones lower affinity. In the case of `N[C@@H](Cc1ccccc1)C(=O)O` [Phenylalanine], the values for the inhibitory constant (Ki) in assay [1] and in assay [3] were 4230 ± 999 µM and 68.6 ± 2.4 µM, respectively. Moreover, the “Current in X. laevis oocytes (nA), L-isomer” value (from here on “Current … L-isomer”) in assay [2] stood at 275 ± 58 nA. In the case of `NC(=O)C[C@H](N)C(=O)O` [Asparagine, L-Asparagine], the “Current … L-isomer” value in assay [2] stood at 394 ± 67 nA. With `CCNC(=N)NCCC[C@H](N)C(=O)O` [L-NMEA], the “Current in X. laevis oocytes” value in assay [2] was found to be 138 ± 16 nA. The term IC50 denotes the concentration needed to halve the response being measured. In assay [3], `N[C@@H](CCC(=O)OCc1ccccc1)C(=O)O` [L-Glutamate γ-benzyl ester] yielded an IC50 of 156 ± 12 µM.

Take `NC(=O)C[C@H](N)C(=O)O` [D-Asparagine, Asparagine]: in assay [2], the “Current in X. laevis oocytes (nA), D-isomer” value (“Current … D-isomer” for short) was determined as 3 ± 2 nA. Take `N=C(N)NCCC[C@H](N)C(=O)O` [Arginine]: the “inhibition of ATB^0,+-specific L-NNA transport” value in assay [4] was “inhibition”. The same molecule showed an activity in assay [5] of 30%. Further, in assay [2], the “Current … L-isomer” value amounted to 339 ± 35 nA; the “inward current in the absence of Cl− (sodium gluconate)” value (“inward current in the absence of Cl−” for short) is reported as “No measurable current”; the “inward current in the absence of Na+ (NMDG chloride)” value (shortened to “inward current in the absence of Na+”) was “No measurable current”; the “Current in X. laevis oocytes” value is given as 382 ± 57 nA. For the molecule `C[C@@H](N)C(=O)O` [D-Alanine, D-alanine], the “Current … D-isomer” value in assay [2] is reported as 402 ± 39 nA. Consider `NC(=S)NCCC[C@H](N)C(=O)O` [L-TC], for which, in assay [2], the “Current in X. laevis oocytes” value is given as 497 ± 104 nA. With `N[C@H](Cc1c[nH]c2ccccc12)C(=O)O` [D-Tryptophan, D-tryptophan], the “Current … D-isomer” value in assay [2] was 157 ± 23 nA. For `C[C@@H](O)[C@H](N)C(=O)O` [Threonine], in assay [2], the “Current … L-isomer” value amounted to 233 ± 12 nA. Take `NCCCC[C@H](N)C(=O)O` [D-Lysine, Lysine]: in assay [2], the “Current … D-isomer” value is on record as 9 ± 9 nA. Regarding `C[N+](C)(C)CC(=O)O` [betaine], the “effect on ATB^0,+-mediated glycine transport (in words)” value in assay [3] is “little or no effect”. As for `CSC(N)=NCCC[C@H](N)C(=O)O` [L-MTC], in assay [2], the “inward current in the absence of Cl−” value is recorded as “no measurable currents”; the “inward current in the absence of Na+” value was “no measurable currents”; the “Current in X. laevis oocytes” value is 116±34 nA and 118 ± 34 nA; the “K0.5 (concentration inducing half-maximal current; Michaelis-Menten constant)” value amounted to 1.36 ± 0.08 mM. On to `CC(C)C[C@@H](N)C(=O)O` [D-Leucine, D-leucine], for which the “Current … D-isomer” value in assay [2] was found to be 161 ± 25 nA. Same read-out and setting: as for `CSCC[C@@H](N)C(=O)O` [D-Methionine, D-methionine], the figure is 213 ± 15 nA. On to `CSCC[C@H](N)C(=O)O` [L-Methionine, Methionine], for which the “Current … L-isomer” value in assay [2] is 278 ± 26 nA. On to `NC(=O)CC[C@@H](N)C(=O)O` [D-Glutamine, D-glutamine], for which, in assay [2], the “Current … D-isomer” value came to 16 ± 11 nA.

For `NC(=NCCC[C@H](N)C(=O)OCc1ccccc1)N[N+](=O)[O-]` [L-NABE], the “Current in X. laevis oocytes” value in assay [2] amounted to 16 ± 2 nA.

Consider `N[C@@H](CO)C(=O)O` [Serine], for which the “inhibition of ATB^0,+-specific L-NNA transport” value in assay [4] is given as “inhibition”. In addition, in assay [2], the “Current … L-isomer” value was 470 ± 42 nA. The inhibition is how much of the control response was suppressed. In assay [5], `N=C(N)NOCC[C@H](N)C(=O)O` [L-Canavanine] showed an activity of 24% and an inhibition of 75%. The “Current in X. laevis oocytes” value in assay [2] came to 269 ± 73 nA. Regarding `N[C@H](Cc1ccccc1)C(=O)O` [D-Phenylalanine, D-phenylalanine], the “Current … D-isomer” value in assay [2] is reported as 24 ± 24 nA. Same read-out and setting: the result for `N=C(N)NCCC[C@H](N)C(=O)O` [D-Arginine, Arginine] reads 6 ± 1 nA. Take `CC[C@H](C)[C@H](N)C(=O)O` [Isoleucine]: the “Current … L-isomer” value in assay [2] is 117 ± 16 nA.

With `CC(C)[C@H](N)C(=O)O` [L-Valine, Valine], the “Current … L-isomer” value in assay [2] is reported as 310 ± 24 nA. For the molecule `CC(C)[C@H](N)C(=O)O` [D-Valine, Valine], in assay [2], the “Current … D-isomer” value is recorded as 4 ± 3 nA.

Regarding `CC(=N)NCCCC[C@H](N)C(=O)O` [L-NIL], in assay [2], the “inward current in the absence of Cl−” value is listed as approximately 10 nA, the “inward current in the absence of Na+” value is “no measurable inward current”, the “Current in X. laevis oocytes” value worked out at 89 ± 18 nA and the “K0.5 (concentration inducing half-maximal current; Michaelis-Menten constant)” value turned out to be 2.72 ± 0.29 mM.

Turning to `CC(C)[C@H](N)C(=O)OCCOCn1cnc2c(=O)[nH]c(N)nc21` [valacyclovir, L-valine α-ester of acyclovir], the “transport in ATB^0,+-expressing cells versus vector-transfected cells (in words)” value in assay [6] ([14C]phenylglycine 10 μM or [8-3H]-valacyclovir 1.25 μM) was “three times higher”. Consider `CC(C)C[C@H](N)C(=O)O` [Leucine], for which, in assay [2], the “Current … L-isomer” value was determined as 187 ± 14 nA.

`C[C@H](O)[C@@H](N)C(=O)O` [D-Threonine, D-threonine]: in assay [2], the “Current … D-isomer” value was found to be 41 ± 5 nA.

On to `N=C(NCCC[C@H](N)C(=O)O)N[N+](=O)[O-]` [L-NNA, N^ω-nitro-L-arginine], for which, in assay [6] (radiolabeled substrate), the “Michaelis-Menten constant (Kt) of transport via mouse ATB^0,+” value was 0.75 ± 0.10 mM and the “transport in ATB^0,+ cDNA-transfected cells compared to vector-transfected cells” value is on record as 4 fold. For the same molecule, in assay [5], the activity is 21%. Further, the “Current in X. laevis oocytes” value in assay [2] came to 200 ± 92 nA. This molecule also gave an IC50 in assay [3] of 560 ± 40 µM. On to `CN(C)C(N)=NCCC[C@H](N)C(=O)O` [L-NDMA], for which the “Current in X. laevis oocytes” value in assay [2] is 85 ± 15 nA.

Molecule `CNC(=N)NCCC[C@H](N)C(=O)O` [L-NMMA] showed an activity in assay [5] of 36%. For the same molecule, the “Current in X. laevis oocytes” value in assay [2] turned out to be 411 ± 76 nA.

Consider `COC(=O)[C@@H](N)CCCNC(=N)N[N+](=O)[O-]` [L-NAME], for which the “Current in X. laevis oocytes” value in assay [2] was found to be 11 ± 2 nA.

Consider `N[C@@H](Cc1c[nH]cn1)C(=O)O` [Histidine], for which, in assay [2], the “Current … L-isomer” value stood at 410 ± 64 nA. With `NCCC[C@H](N)C(=O)O` [Ornithine], the “Current in X. laevis oocytes” value in assay [2] is 131 ± 27 nA. Consider `CNC(C)(C)C(=O)O` [MeAIB], for which the “inhibition of ATB^0,+-specific L-NNA transport” value in assay [4] is listed as “did not inhibit”. `CC(=N)NCCC[C@H](N)C(=O)O` [L-NIO]: in assay [2], the “Current in X. laevis oocytes” value is 71 ± 16 nA and the “K0.5 (concentration inducing half-maximal current; Michaelis-Menten constant)” value came to 2.24 ± 0.35 mM. Turning to `NCC(=O)O` [Glycine], the “inhibition of ATB^0,+-specific L-NNA transport” value in assay [4] was “inhibition”. Moreover, in assay [6], the “Hill coefficient for Na+ activation of substrate transport” value is listed as 2.0±0.1, the “K0.5 for Cl− in substrate transport” value was 18 ± 8 mM, the “K0.5 for Na+ in substrate transport” value was found to be 25 ± 1 mM and the “Michaelis-Menten constant (Kt) of transport via mouse ATB^0,+” value was 0.21 ± 0.018 mM. The “transport in ATB^0,+ cDNA-transfected cells compared to vector-transfected cells” value in assay [6] (radiolabeled substrate) is 38 fold and 30 fold. Take `N[C@H](Cc1c[nH]cn1)C(=O)O` [D-Histidine, D-histidine]: the “Current … D-isomer” value in assay [2] was determined as 29 ± 6 nA.

For the molecule `NCCCC(=O)O` [γ-Aminobutyrate, γ-aminobutyrate], the “effect on ATB^0,+-mediated glycine transport (in words)” value in assay [3] was “little or no effect”. `NCCCC[C@H](N)C(=O)O` [Lysine]: in assay [2], the “Current … L-isomer” value is reported as 321 ± 34 nA and the “Current in X. laevis oocytes” value was 545 ± 95 nA. Take `CC[C@H](C)[C@H](N)C(=O)O` [D-Isoleucine, Isoleucine]: the “Current … D-isomer” value in assay [2] is 4 ± 4 nA.

With `N[C@@H](Cc1c[nH]c2ccccc12)C(=O)O` [Tryptophan], the “Current … L-isomer” value in assay [2] is recorded as 112 ± 4 nA.

Take `NC(=O)CC[C@H](N)C(=O)O` [Glutamine, L-Glutamine]: the “Current … L-isomer” value in assay [2] stood at 453 ± 53 nA. In the case of `NC(=O)NCCC[C@H](N)C(=O)O` [Citrulline], the “Current in X. laevis oocytes” value in assay [2] was 498 ± 114 nA. On to `N[C@@H](CC(=O)OCc1ccccc1)C(=O)O` [L-Aspartate β-benzyl ester], for which, in assay [3], the IC50 was found to be 70 ± 8 µM. Further, the “potency relative to benzyl ester of glutamate” value in assay [3] (from IC50 values) is listed as “about 2 fold”.

The values are drawn from patent US20040142317A1, “Use of amino acid transporter atbo,+ as a delivery system for drugs and prodrugs” (priority 2003, published 2004).
